Data set [1] has as its system Rattus norvegicus. Briefly: Analgesic activity in iv dosed rat Brennan's incision pain model assessed as reduction in pain measured after 15 mins. The format is functional, organism-based. The settings on record: dose 0.5-1 mg/kg.
The nature of data set [2]: Stability in rat serum assessed as half-life incubated for 22 to 24 hrs by LC-MS/MS method. The format is ADME, cell-free. The settings on record: time 22-24 hrs.
The target in data set [3] is High affinity nerve growth factor receptor (Homo sapiens, UniProt P04629). As to the kind of experiment: Inhibition of human TrkA assessed as beta-galactosidase activity pretreated with NGF followed by […] and measured after 180 mins by pathhunter assay.
Sequence of High affinity nerve growth factor receptor (P04629 whole entry): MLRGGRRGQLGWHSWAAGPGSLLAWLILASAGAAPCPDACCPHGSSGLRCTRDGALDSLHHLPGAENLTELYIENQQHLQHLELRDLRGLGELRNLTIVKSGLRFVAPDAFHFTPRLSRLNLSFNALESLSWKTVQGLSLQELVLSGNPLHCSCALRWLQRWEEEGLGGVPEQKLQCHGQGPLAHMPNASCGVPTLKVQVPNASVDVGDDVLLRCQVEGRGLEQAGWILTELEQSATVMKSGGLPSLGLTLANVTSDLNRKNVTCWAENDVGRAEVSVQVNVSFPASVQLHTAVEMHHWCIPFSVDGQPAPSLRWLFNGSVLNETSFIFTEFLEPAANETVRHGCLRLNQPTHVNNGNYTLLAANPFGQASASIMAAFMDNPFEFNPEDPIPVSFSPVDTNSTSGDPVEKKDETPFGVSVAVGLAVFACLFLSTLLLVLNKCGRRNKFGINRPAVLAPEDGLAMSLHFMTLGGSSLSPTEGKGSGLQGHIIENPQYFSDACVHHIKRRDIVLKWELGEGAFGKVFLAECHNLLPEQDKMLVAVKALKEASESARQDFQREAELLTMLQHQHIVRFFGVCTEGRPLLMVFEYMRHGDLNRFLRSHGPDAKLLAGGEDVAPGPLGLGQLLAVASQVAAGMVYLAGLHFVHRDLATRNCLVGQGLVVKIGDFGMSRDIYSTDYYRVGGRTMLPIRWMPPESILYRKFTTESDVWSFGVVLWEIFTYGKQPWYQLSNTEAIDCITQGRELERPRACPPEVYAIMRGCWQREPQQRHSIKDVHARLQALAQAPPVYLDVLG
A short description of data set [4]: Stability in human serum assessed as half-life incubated for 22 to 24 hrs by LC-MS/MS method. The format is ADME, cell-free. The settings on record: time 22-24 hrs.
The nature of data set [5]: Total clearance in Sprague-Dawley rat at 1 umol/kg, iv administered as cassette dose measured upto 6 hrs by LC-MS/MS method. The format is ADME, organism-based. The settings on record: in vivo, dose 1 µmol/kg.
The nature of data set [6]: AUC in Sprague-Dawley rat at 1 umol/kg, iv administered as cassette dose measured upto 6 hrs by LC-MS/MS method. It counts as ADME, organism-based. The settings on record: in vivo, dose 1 µmol/kg.

Bridge positions count the residues as written; N and C are the ends. Square brackets hold non-standard residues; d marks the D form. Peptide text beside a SMILES is read from it. NMeY = CN[C@@H](Cc1ccc(O)cc1)C(=O)O; NMeF = CN[C@@H](Cc1ccccc1)C(=O)O; NMeN = CN[C@@H](CC(N)=O)C(=O)O; NMeL = CN[C@@H](CC(C)C)C(=O)O; NMeS = CN[C@@H](CO)C(=O)O; Sar = CNCC(=O)O

Regarding `CN1CC[C@]23c4c5ccc(O)c4O[C@H]2[C@@H](O)C=C[C@H]3[C@H]1C5`, in data set [1], the Activity entry is “Dose-dependent-effect”.

One may read the half-life as the time in which the quantity being followed falls by half. As a reminder, the IC50 is the concentration needed to halve the response being measured. For `CC(C)C[C@@H]1NC(=O)[C@H](CCCNC(=N)N)NC(=O)CNC(=O)[C@H](Cc2ccccc2)N(C)C(=O)CNC(=O)[C@H](Cc2c[nH]c3ccccc23)NC(=O)[C@H](Cc2ccc(O)cc2)NC(=O)[C@H](CCC(=O)O)NC(=O)[C@H](C(C)C)NC(=O)[C@H](CO)NC(=O)[C@H](CCCCN)NC(=O)[C@H](Cc2ccccc2)NC(=O)CSC[C@@H](C(=O)N(C)CC(N)=O)NC(=O)[C@H](Cc2c[nH]cn2)NC(=O)[C@H](CC(=O)O)NC(=O)[C@H](Cc2ccc(O)cc2)NC(=O)[C@H](Cc2ccc(O)cc2)NC(=O)[C@H](CCCCN)NC1=O` ({CH2CO}-FKSVEYWG[NMeF]GRLKYYDHC[Sar]-NH2; thioether N-18), the results for the half-life in data set [2] and in data set [4] were 32 h and 2.5 h, respectively. Also, the IC50 in data set [3] came out at 35 nM.

For `CC(C)C[C@@H]1NC(=O)[C@H](CCCNC(=N)N)NC(=O)CNC(=O)[C@H](Cc2ccccc2)N(C)C(=O)CNC(=O)[C@H](Cc2c[nH]c3ccccc23)NC(=O)[C@H](Cc2ccc(O)cc2)NC(=O)[C@H](CO)NC(=O)[C@H](C(C)C)NC(=O)[C@H](CO)NC(=O)[C@H](CCCCN)NC(=O)[C@H](Cc2ccccc2)NC(=O)CSC[C@@H](C(=O)N(C)CC(N)=O)NC(=O)[C@H](Cc2c[nH]cn2)NC(=O)[C@H](CC(N)=O)NC(=O)[C@H](Cc2ccc(O)cc2)NC(=O)[C@H](Cc2ccc(O)cc2)NC(=O)[C@H](CCCCN)NC1=O` ({CH2CO}-FKSVSYWG[NMeF]GRLKYYNHC[Sar]-NH2; thioether N-18), the figures for the half-life in data set [2] and in data set [4] were 4.5 h and 2.9 h, respectively. The IC50 in data set [3] worked out at 22 nM.

As for `CC(C)C[C@@H]1NC(=O)[C@H](CC(N)=O)NC(=O)CNC(=O)[C@H](Cc2ccccc2)N(C)C(=O)CNC(=O)[C@H](Cc2c[nH]c3ccccc23)NC(=O)[C@H](Cc2ccc(O)cc2)NC(=O)[C@H](C)NC(=O)[C@H](C(C)C)NC(=O)[C@H](CO)NC(=O)[C@H](CO)NC(=O)[C@H](Cc2ccccc2)NC(=O)CSC[C@@H](C(=O)NCC(N)=O)NC(=O)[C@H](Cc2c[nH]cn2)NC(=O)[C@H](CC(N)=O)NC(=O)[C@H](Cc2ccc(O)cc2)NC(=O)[C@H](Cc2ccc(O)cc2)NC(=O)[C@H](C(C)C)NC1=O` ({CH2CO}-FSSVAYWG[NMeF]GNLVYYNHCG-NH2; thioether N-18), the IC50 in data set [3] stood at 26 nM.

One may read the clearance as the volume of plasma or blood freed of the substance per unit of time. High values mean efficient removal, low ones inefficient removal. By AUC is commonly meant the area under the concentration-time curve, a measure of exposure. Read a low AUC as low exposure. On to `CC[C@H](C)[C@@H]1NC(=O)CNC(=O)[C@H](Cc2ccccc2)N(C)C(=O)CNC(=O)[C@H](Cc2c[nH]c3ccccc23)NC(=O)[C@H](Cc2ccc(O)cc2)NC(=O)[C@H](CCC(=O)O)NC(=O)[C@H](C(C)C)NC(=O)[C@H](CO)NC(=O)[C@H](CO)NC(=O)[C@H](Cc2ccccc2)NC(=O)CSC[C@@H](C(=O)NCC(N)=O)NC(=O)[C@H](Cc2cnc[nH]2)NC(=O)[C@H](CC(=O)O)NC(=O)[C@H](Cc2ccc(O)cc2)NC(=O)[C@H](Cc2c[nH]c3ccccc23)NC(=O)[C@H](CCC(=O)O)NC(=O)[C@H](CC(C)C)NC1=O` ({CH2CO}-FSSVEYWG[NMeF]GILEWYDHCG-NH2; thioether N-18), for which the half-life in data set [2] and in data set [4] was over 72 h in each case. The IC50 in data set [3] worked out at 34 nM. In data set [5], the clearance turned out to be 21.3 mL/min/kg. This compound also returned an AUC at 6 h in data set [6] of 0.786 µM·h.

As to `CC(C)C[C@@H]1NC(=O)[C@H](CC(N)=O)NC(=O)CNC(=O)[C@H](Cc2ccccc2)N(C)C(=O)CNC(=O)[C@H](Cc2c[nH]c3ccccc23)NC(=O)[C@H](Cc2ccc(O)cc2)NC(=O)[C@H](CO)NC(=O)[C@H](C(C)C)NC(=O)[C@H](CO)NC(=O)[C@H](CO)NC(=O)[C@H](Cc2ccccc2)NC(=O)CSC[C@@H](C(=O)NCC(N)=O)NC(=O)[C@H](Cc2c[nH]cn2)NC(=O)[C@H](CC(N)=O)NC(=O)[C@H](Cc2ccc(O)cc2)NC(=O)[C@H](Cc2c[nH]c3ccccc23)NC(=O)[C@H](C(C)C)NC1=O` ({CH2CO}-FSSVSYWG[NMeF]GNLVWYNHCG-NH2; thioether N-18), the IC50 in data set [3] was determined as 41 nM.

As for `CC(C)C[C@@H]1NC(=O)[C@H](CC(N)=O)NC(=O)CNC(=O)[C@H](Cc2ccccc2)N(C)C(=O)CNC(=O)[C@H](Cc2c[nH]c3ccccc23)NC(=O)[C@H](Cc2ccc(O)cc2)NC(=O)[C@H](CO)NC(=O)[C@H](C(C)C)NC(=O)[C@H](CO)NC(=O)[C@H](CO)NC(=O)[C@H](Cc2ccccc2)NC(=O)CSC[C@@H](C(=O)N(C)CC(N)=O)NC(=O)[C@H](Cc2c[nH]cn2)NC(=O)[C@H](CC(N)=O)NC(=O)[C@H](Cc2ccc(O)cc2)NC(=O)[C@H](Cc2c[nH]c3ccccc23)NC(=O)[C@H](C(C)C)NC1=O` ({CH2CO}-FSSVSYWG[NMeF]GNLVWYNHC[Sar]-NH2; thioether N-18), in data set [3], the IC50 came out at 15 nM.

Regarding `CC(C)C[C@@H]1NC(=O)[C@H](CC(N)=O)NC(=O)CNC(=O)[C@H](Cc2ccccc2)N(C)C(=O)CNC(=O)[C@H](Cc2c[nH]c3ccccc23)NC(=O)[C@H](Cc2ccc(O)cc2)NC(=O)[C@H](CO)NC(=O)[C@H](C(C)C)NC(=O)[C@H](CO)NC(=O)[C@H](CO)NC(=O)[C@H](Cc2ccccc2)NC(=O)CSC[C@@H](C(=O)NCC(N)=O)NC(=O)[C@H](Cc2c[nH]cn2)NC(=O)[C@H](CC(N)=O)N(C)C(=O)[C@H](Cc2ccc(O)cc2)NC(=O)[C@H](Cc2c[nH]c3ccccc23)NC(=O)[C@H](C(C)C)NC1=O` ({CH2CO}-FSSVSYWG[NMeF]GNLVWY[NMeN]HCG-NH2; thioether N-18), the IC50 in data set [3] was determined as 48 nM.

For `CC(C)C[C@@H]1NC(=O)[C@H](CC(N)=O)NC(=O)CNC(=O)[C@H](Cc2ccccc2)N(C)C(=O)CNC(=O)[C@H](Cc2c[nH]c3ccccc23)NC(=O)[C@H](Cc2ccc(O)cc2)NC(=O)[C@H](CO)NC(=O)[C@H](C(C)C)NC(=O)[C@H](CO)NC(=O)[C@H](CO)NC(=O)[C@H](Cc2ccccc2)NC(=O)CSC[C@@H](C(=O)NCC(N)=O)NC(=O)[C@H](Cc2cnc[nH]2)NC(=O)[C@H](CC(=O)O)NC(=O)[C@H](Cc2ccc(O)cc2)NC(=O)[C@H](Cc2ccc(O)cc2)NC(=O)[C@H](C(C)C)NC1=O` ({CH2CO}-FSSVSYWG[NMeF]GNLVYYDHCG-NH2; thioether N-18), the IC50 in data set [3] stood at 24 nM.

Turning to `CC(C)C[C@@H]1NC(=O)[C@H](CC(N)=O)NC(=O)CNC(=O)[C@H](Cc2ccccc2)N(C)C(=O)CNC(=O)[C@H](Cc2c[nH]c3ccccc23)NC(=O)[C@H](Cc2ccc(O)cc2)NC(=O)[C@H](CO)NC(=O)[C@H](C(C)C)NC(=O)[C@H](CO)NC(=O)[C@H](CO)NC(=O)[C@H](Cc2ccccc2)NC(=O)CSC[C@@H](C(=O)NCC(N)=O)NC(=O)[C@H](Cc2c[nH]cn2)NC(=O)[C@H](CC(N)=O)NC(=O)[C@H](Cc2ccc(O)cc2)NC(=O)[C@H](Cc2ccc(O)cc2)NC(=O)[C@H](C(C)C)NC1=O` ({CH2CO}-FSSVSYWG[NMeF]GNLVYYNHCG-NH2; thioether N-18), the IC50 in data set [3] was 6 nM.

As for `CC(C)C[C@@H]1NC(=O)[C@H](CC(N)=O)NC(=O)CNC(=O)[C@H](Cc2ccccc2)N(C)C(=O)CNC(=O)[C@H](Cc2c[nH]c3ccccc23)NC(=O)[C@H](Cc2ccc(O)cc2)NC(=O)[C@H](CO)NC(=O)[C@H](C(C)C)NC(=O)[C@H](CO)NC(=O)[C@H](CO)NC(=O)[C@H](Cc2ccccc2)NC(=O)CSC[C@@H](C(=O)NCC(N)=O)NC(=O)[C@H](Cc2c[nH]cn2)NC(=O)[C@H](CO)NC(=O)[C@H](Cc2ccc(O)cc2)NC(=O)[C@H](Cc2ccc(O)cc2)NC(=O)[C@H](C(C)C)NC1=O` ({CH2CO}-FSSVSYWG[NMeF]GNLVYYSHCG-NH2; thioether N-18), the IC50 in data set [3] was 186 nM.

Turning to `CC(C)C[C@H]1C(=O)N[C@@H](C(C)C)C(=O)N[C@@H](Cc2c[nH]c3ccccc23)C(=O)N[C@@H](Cc2ccc(O)cc2)C(=O)N[C@@H](CC(N)=O)C(=O)N[C@@H](Cc2c[nH]cn2)C(=O)N[C@H](C(=O)NCC(N)=O)CSCC(=O)N[C@@H](Cc2ccccc2)C(=O)N[C@@H](CO)C(=O)N[C@@H](CO)C(=O)N[C@@H](C(C)C)C(=O)N[C@@H](CO)C(=O)N[C@@H](Cc2ccc(O)cc2)C(=O)N[C@@H](Cc2c[nH]c3ccccc23)C(=O)NCC(=O)N(C)[C@@H](Cc2ccccc2)C(=O)NCC(=O)N[C@@H](CC(N)=O)C(=O)N1C` ({CH2CO}-FSSVSYWG[NMeF]GN[NMeL]VWYNHCG-NH2; thioether N-18), the IC50 in data set [3] amounted to 81 nM.

With `CC(C)C[C@@H]1NC(=O)[C@H](CC(N)=O)NC(=O)CNC(=O)[C@H](Cc2ccccc2)N(C)C(=O)CNC(=O)[C@H](Cc2c[nH]c3ccccc23)NC(=O)[C@H](Cc2ccc(O)cc2)N(C)C(=O)[C@H](CO)NC(=O)[C@H](C(C)C)NC(=O)[C@H](CO)NC(=O)[C@H](CO)NC(=O)[C@H](Cc2ccccc2)NC(=O)CSC[C@@H](C(=O)NCC(N)=O)NC(=O)[C@H](Cc2c[nH]cn2)NC(=O)[C@H](CC(N)=O)NC(=O)[C@H](Cc2ccc(O)cc2)NC(=O)[C@H](Cc2c[nH]c3ccccc23)NC(=O)[C@H](C(C)C)NC1=O` ({CH2CO}-FSSVS[NMeY]WG[NMeF]GNLVWYNHCG-NH2; thioether N-18), in data set [3], the IC50 was 22 nM.

For `CC(C)C[C@@H]1NC(=O)[C@H](CC(N)=O)NC(=O)CNC(=O)[C@H](Cc2ccccc2)N(C)C(=O)CNC(=O)[C@H](Cc2c[nH]c3ccccc23)NC(=O)[C@H](Cc2ccc(O)cc2)NC(=O)[C@H](CO)NC(=O)[C@H](C(C)C)NC(=O)[C@H](CO)NC(=O)[C@H](CO)N(C)C(=O)[C@H](Cc2ccccc2)NC(=O)CSC[C@@H](C(=O)NCC(N)=O)NC(=O)[C@H](Cc2c[nH]cn2)NC(=O)[C@H](CC(N)=O)NC(=O)[C@H](Cc2ccc(O)cc2)NC(=O)[C@H](Cc2c[nH]c3ccccc23)NC(=O)[C@H](C(C)C)NC1=O` ({CH2CO}-F[NMeS]SVSYWG[NMeF]GNLVWYNHCG-NH2; thioether N-18), the IC50 in data set [3] stood at 13 nM.

The record behind these values is ChEMBL document CHEMBL6083183, “Discovery and Hit to Lead Optimization of Macrocyclic Peptides as Novel Tropomyosin Receptor Kinase A Antagonists” (J Med Chem, 2024).
